Reference: the NIST ThermoML archive (doi:10.1016/j.tca.2012.07.004)
± gives the expanded uncertainty stated by the source.

Tests used:
[1] = 101 kPa, Liquid; for mass density: Vibrating tube method; for viscosity: Vibrating wire viscometry; for speed of sound: ultrasonic interferometer
[2] = xn = mol fraction of the nth substance listed; settings: 101 kPa, Liquid, x2 = 0; for mass density: Vibrating tube method; for viscosity: Vibrating wire viscometry; for speed of sound: ultrasonic interferometer

Structure (SMILES) | mass density ([1]; 298.15 K) | viscosity ([1]; 298.15 K) | speed of sound ([1]; 298.15 K) | mass density ([1]; 303.15 K) | viscosity ([1]; 303.15 K) | speed of sound ([1]; 303.15 K) | mass density ([1]; 308.15 K) | viscosity ([1]; 308.15 K) | speed of sound ([1]; 308.15 K) | mass density ([1]; 313.15 K) | viscosity ([1]; 313.15 K) | speed of sound ([1]; 313.15 K) | mass density ([2]; 298.15 K) | viscosity ([2]; 298.15 K) | speed of sound ([2]; 298.15 K) | mass density ([2]; 303.15 K) | viscosity ([2]; 303.15 K) | speed of sound ([2]; 303.15 K) | mass density ([2]; 308.15 K) | viscosity ([2]; 308.15 K) | also measured
CCN(CC)CC.O=P(O)(O)O [triethylammonium dihydrogen phosphate] | 1125.7 ± 0.43 kg/m3 | 64.31 ± 3.9 mPa·s | 1794 ± 20 m/s | 1124.68 ± 0.43 kg/m3 | 57.1 ± 3.4 mPa·s | 1769 ± 20 m/s | 1123.71 ± 0.42 kg/m3 | 49.53 ± 3 mPa·s | 1757 ± 20 m/s | 1122.37 ± 0.42 kg/m3 | 38.31 ± 2.3 mPa·s | 1730 ± 20 m/s |  |  |  |  |  |  |  |  | 
C[NH+](C)C.O=S(=O)([O-])O [trimethylammonium hydrogen sulfate] | 1467.58 ± 0.83 kg/m3 | 5.1 ± 0.31 mPa·s | 1564 ± 20 m/s | 1463.56 ± 0.82 kg/m3 | 4.48 ± 0.27 mPa·s | 1560 ± 20 m/s | 1463.5 ± 0.82 kg/m3 | 3.94 ± 0.24 mPa·s | 1556 ± 20 m/s | 1455.63 ± 0.82 kg/m3 | 3.16 ± 0.19 mPa·s | 1552 ± 20 m/s |  |  |  |  |  |  |  |  | 
C[NH+](C)C.O=P([O-])(O)O [trimethylammonium dihydrogen phosphate] | 1353.61 ± 0.69 kg/m3 | 7.64 ± 0.46 mPa·s | 1672 ± 20 m/s | 1350.62 ± 0.68 kg/m3 | 6.46 ± 0.39 mPa·s | 1660 ± 20 m/s | 1347.59 ± 0.68 kg/m3 | 5.61 ± 0.34 mPa·s | 1661 ± 20 m/s | 1344.53 ± 0.68 kg/m3 | 5.07 ± 0.31 mPa·s | 1664 ± 20 m/s |  |  |  |  |  |  |  |  | 
CN1CCCC1=O [N-methylpyrrolidone] | 1025.9 ± 0.32 kg/m3 | 1.66 ± 0.1 mPa·s | 1572 ± 20 m/s | 1023.74 ± 0.32 kg/m3 | 1.49 ± 0.09 mPa·s | 1552 ± 20 m/s | 1019.25 ± 0.32 kg/m3 | 1.39 ± 0.08 mPa·s | 1528 ± 20 m/s | 1014.74 ± 0.31 kg/m3 | 1.31 ± 0.08 mPa·s | 1520 ± 20 m/s |  |  |  |  |  |  |  |  | 
CN1CCCC1=O [N-methylpyrrolidone] + CC(=O)[O-].C[NH+](C)C |  |  |  |  |  |  |  |  |  |  |  |  | 1025.9 ± 0.32 kg/m3 | 1.66 ± 0.1 mPa·s | 1572 ± 20 m/s | 1023.74 ± 0.32 kg/m3 | 1.49 ± 0.09 mPa·s | 1552 ± 20 m/s | 1019.25 ± 0.32 kg/m3 | 1.39 ± 0.08 mPa·s | speed of sound ([2]; 308.15 K): 1528 ± 20 m/s; mass density ([2]; 313.15 K): 1014.74 ± 0.31 kg/m3; viscosity ([2]; 313.15 K): 1.31 ± 0.08 mPa·s; speed of sound ([2]; 313.15 K): 1520 ± 20 m/s
CC(=O)[O-].C[NH+](C)C [trimethylammonium acetate] | 1053.85 ± 0.35 kg/m3 | 2.76 ± 0.17 mPa·s | 1544 ± 20 m/s | 1049.87 ± 0.35 kg/m3 | 2.37 ± 0.14 mPa·s | 1514 ± 20 m/s | 1045.81 ± 0.35 kg/m3 | 2.06 ± 0.12 mPa·s | 1508 ± 20 m/s | 1041.7 ± 0.34 kg/m3 | 1.83 ± 0.11 mPa·s | 1490 ± 20 m/s |  |  |  |  |  |  |  |  | 

More lines, main results first:

mass density ([1]; 298.15 K) | viscosity ([1]; 298.15 K) | speed of sound ([1]; 298.15 K) | mass density ([1]; 303.15 K) | viscosity ([1]; 303.15 K) | speed of sound ([1]; 303.15 K) | mass density ([1]; 308.15 K) | viscosity ([1]; 308.15 K) | speed of sound ([1]; 308.15 K) | mass density ([1]; 313.15 K) | viscosity ([1]; 313.15 K) | speed of sound ([1]; 313.15 K) | mass density ([2]; 298.15 K) | viscosity ([2]; 298.15 K) | speed of sound ([2]; 298.15 K) | mass density ([2]; 303.15 K) | viscosity ([2]; 303.15 K) | speed of sound ([2]; 303.15 K) | mass density ([2]; 308.15 K) | viscosity ([2]; 308.15 K) | Structure (SMILES) | also measured
 |  |  |  |  |  |  |  |  |  |  |  | 1025.9 ± 0.32 kg/m3 | 1.66 ± 0.1 mPa·s | 1572 ± 20 m/s | 1023.74 ± 0.32 kg/m3 | 1.49 ± 0.09 mPa·s | 1552 ± 20 m/s | 1019.25 ± 0.32 kg/m3 | 1.39 ± 0.08 mPa·s | CN1CCCC1=O [N-methylpyrrolidone] + CCN(CC)CC.O=P(O)(O)O | speed of sound ([2]; 308.15 K): 1528 ± 20 m/s; mass density ([2]; 313.15 K): 1014.74 ± 0.31 kg/m3; viscosity ([2]; 313.15 K): 1.31 ± 0.08 mPa·s; speed of sound ([2]; 313.15 K): 1520 ± 20 m/s
 |  |  |  |  |  |  |  |  |  |  |  | 1025.9 ± 0.32 kg/m3 | 1.66 ± 0.1 mPa·s | 1572 ± 20 m/s | 1023.74 ± 0.32 kg/m3 | 1.49 ± 0.09 mPa·s | 1552 ± 20 m/s | 1019.25 ± 0.32 kg/m3 | 1.39 ± 0.08 mPa·s | CN1CCCC1=O [N-methylpyrrolidone] + C[NH+](C)C.O=P([O-])(O)O | speed of sound ([2]; 308.15 K): 1528 ± 20 m/s; mass density ([2]; 313.15 K): 1014.74 ± 0.31 kg/m3; viscosity ([2]; 313.15 K): 1.31 ± 0.08 mPa·s; speed of sound ([2]; 313.15 K): 1520 ± 20 m/s
 |  |  |  |  |  |  |  |  |  |  |  | 1025.9 ± 0.3 kg/m3 | 1.66 ± 0.1 mPa·s | 1572 ± 20 m/s | 1023.74 ± 0.32 kg/m3 | 1.49 ± 0.09 mPa·s | 1552 ± 20 m/s | 1019.25 ± 0.32 kg/m3 | 1.39 ± 0.08 mPa·s | CN1CCCC1=O [N-methylpyrrolidone] + C[NH+](C)C.O=S(=O)([O-])O | speed of sound ([2]; 308.15 K): 1528 ± 20 m/s; mass density ([2]; 313.15 K): 1014.74 ± 0.31 kg/m3; viscosity ([2]; 313.15 K): 1.31 ± 0.08 mPa·s; speed of sound ([2]; 313.15 K): 1520 ± 20 m/s
